# In ChEMBL document CHEMBL1155760, “Quinoline alkaloids and other constituents of Melicope semecarpifolia with antiplatelet aggregation activity” (2001):
# What was measured:
# Conditions in all cases: Oryctolagus cuniculus
# [1] = Antiplatelet activity against washed rabbit platelet assessed as thrombin-induced platelet aggregation at 100 ug/mL pre-incubated 3 mins before thrombin challenge by turbidimetric method
# [2] = Antiplatelet activity against washed rabbit platelet assessed as collagen-induced platelet aggregation at 100 ug/mL pre-incubated 3 mins before collagen challenge by turbidimetric method
# [3] = Antiplatelet activity against washed rabbit platelet assessed as platelet activating factor-induced platelet aggregation at 100 ug/mL pre-incubated 3 mins before PAF challenge by turbidimetric method
# [4] = Antiplatelet activity against washed rabbit platelet assessed as arachidonic acid-induced platelet aggregation at 100 ug/mL pre-incubated 3 mins before arachidonic acid challenge by turbidimetric method
# [5] = Antiplatelet activity against washed rabbit platelet assessed as thrombin-induced platelet aggregation at 50 ug/mL preincubated 3 mins before thrombin challenge by turbidimetric method
# [6] = Antiplatelet activity against washed rabbit platelet assessed as collagen-induced platelet aggregation at 50 ug/mL pre-incubated 3 mins before collagen challenge by turbidimetric method
# [7] = Antiplatelet activity against washed rabbit platelet assessed as platelet activating factor-induced platelet aggregation at 50 ug/mL preincubated 3 mins before PAF challenge by turbidimetric method
# [8] = Antiplatelet activity against washed rabbit platelet assessed as arachidonic acid-induced platelet aggregation at 50 ug/mL preincubated 3 mins before arachidonic acid challenge by turbidimetric method
# [9] = Antiplatelet activity against washed rabbit platelet assessed as arachidonic acid-induced platelet aggregation at 20 ug/mL pre-incubated 3 mins before arachidonic acid challenge by turbidimetric method
# [10] = Antiplatelet activity against washed rabbit platelet assessed as collagen-induced platelet aggregation at 20 ug/mL pre-incubated 3 mins before collagen challenge by turbidimetric method
# [11] = Antiplatelet activity against washed rabbit platelet assessed as arachidonic acid-induced platelet aggregation at 5 ug/mL pre-incubated 3 mins before arachidonic acid challenge by turbidimetric method
# [12] = Antiplatelet activity against washed rabbit platelet assessed as arachidonic acid-induced platelet aggregation at 10 ug/mL pre-incubated 3 mins before arachidonic acid challenge by turbidimetric method
# [13] = Antiplatelet activity against washed rabbit platelet assessed as thrombin-induced platelet aggregation at 20 ug/mL pre-incubated 3 mins before thrombin challenge by turbidimetric method
# [14] = Antiplatelet activity against washed rabbit platelet assessed as platelet activating factor-induced platelet aggregation at 20 ug/mL pre-incubated 3 mins before PAF challenge by turbidimetric method
Structure (SMILES),Aggregation % at 100 µg/mL [1] [%],Aggregation % at 100 µg/mL [2] [%],Aggregation % at 100 µg/mL [3] [%],Aggregation % at 100 µg/mL [4] [%],aggregation at 50 µg/mL [5] [%],Aggregation % at 50 µg/mL [6] [%],Aggregation % at 50 µg/mL [7] [%],Aggregation % at 50 µg/mL [8] [%],Aggregation % at 20 µg/mL [9] [%],Aggregation % at 20 µg/mL [10] [%],Aggregation % at 5 µg/mL [11] [%],Aggregation % at 10 µg/mL [12] [%],Aggregation % at 20 µg/mL [13] [%],Aggregation % at 20 µg/mL [14] [%]
COc1ccc2c(OC)c3c(nc2c1OC)O[C@H](C(C)(C)O)C3,86.5,84.4,89.8,81.7,,,,,,,,,,
COc1ccc2c(OC)c3c(nc2c1OC)O[C@@H](C(C)(C)O)[C@H]3O,85.4,79,89.4,78.3,,,,,,,,,,
CC(=O)Oc1ccccc1C(=O)O [ASPIRIN],,,,,94.2,88.4,91.2,7.8,11.7,,,,,
COc1cc(O)c2c(=O)c(OC)c(-c3ccc(OC)c(O)c3)oc2c1 [AYANIN],85.4,43.1,88.3,13.3,,66.1,,38,66.3,80.3,81.9,77.2,,
COc1c2ccc(O)cc2nc2occc12 [CONFUSAMELINE],,11.4,78.6,0,,,,,,,,,,
COc1cc2nc3occc3c(OC)c2cc1OC [KOKUSAGININE],,15.2,70.7,0,,80.6,88.9,0,,,,,,
CCCCCCCC/C=C\CCCCCCCC(=O)OC [METHYL OLEATE],,,,,,,,,81.7,84.4,,,86.7,89.4
CC(C)=CCc1c(O)ccc2ccc(=O)oc12 [OSTHENOL],90.4,13.7,89.8,23.2,,79.2,,84.8,,87,,,,
COc1ccc2ccc(=O)oc2c1CC=C(C)C [OSTHOLE],86.6,7.4,0,0,,7,88.6,52.6,84.5,88.1,,,,90
COCc1c(OC)c2ccc(OC)cc2[nH]c1=O [SEMECARPIFOLINE],85.8,82.7,88.8,81,,,,,,,,,,
COc1cc(C(=O)O)cc(OC)c1O [SYRINGIC ACID],88.3,85.1,89.6,83.2,,,,,,,,,,
